From the supplement of paper PMC10307832

Experiments:
Assay in all cases: relative viability (nuclei count vs DMSO), 5 days (fraction); higher = more cells survive
[1] = compound: CC1=CC(=NN1)NC2=CC(=NC(=N2)/C=C/C3=CC=CC=C3)N4CCN(CC4)C + Cc1nc(Nc2ncc(C(=O)Nc3c(C)cccc3Cl)s2)cc(N2CCN(CCO)CC2)n1 [Dasatinib] (partner 0.075 µM)
In short: (§1)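 Five library-drug doses in √10 steps were combined with a fixed anchor-drug dose, or a single drug was given alone, by pin tool to lung cancer cell lines in 1536-well plates the day after seeding. Nuclei were stained and counted after 5 days. Relative viability is the nuclei count in treated wells over that in vehicle wells, taken as the median of duplicate plates.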

Obatoclax + Foretinib = compound: COC1=CC(c2cc3ccccc3[nH]2)=N/C1=C\c1[nH]c(C)cc1C [Obatoclax] + COc1cc2c(Oc3ccc(NC(=O)C4(C(=O)Nc5ccc(F)cc5)CC4)cc3F)ccnc2cc1OCCCN1CCOCC1 [Foretinib] (partner 0.25 µM)
In short: as §1

Obatoclax + Vorinostat = compound: COC1=CC(c2cc3ccccc3[nH]2)=N/C1=C\c1[nH]c(C)cc1C [Obatoclax] + O=C(CCCCCCC(=O)Nc1ccccc1)NO [Vorinostat] (partner 1 µM)
In short: as §1

[2] = compound: CC1=CC(=NN1)NC2=CC(=NC(=N2)/C=C/C3=CC=CC=C3)N4CCN(CC4)C + CCNC(=O)c1noc(-c2cc(C(C)C)c(O)cc2O)c1-c1ccc(CN2CCOCC2)cc1 [Luminespib] (partner 0.01 µM)
In short: as §1

NCI-H2342
relative viability ([1]; first compound 0.08 µM): 0.314 | relative viability ([1]; first compound 0.253 µM): 0.298 | relative viability ([1]; first compound 0.8 µM): 0.322 | relative viability ([1]; first compound 2.53 µM): 0.249 | relative viability ([1]; first compound 8 µM): 0.218 | relative viability (Obatoclax + Foretinib; first compound 0.01 µM): 1.05 | relative viability (Obatoclax + Foretinib; first compound 0.03162 µM): 0.947 | relative viability (Obatoclax + Foretinib; first compound 0.1 µM): 1.09 | relative viability (Obatoclax + Foretinib; first compound 0.3162 µM): 1.04 | relative viability (Obatoclax + Foretinib; first compound 1 µM): 1.03 | relative viability (Obatoclax + Vorinostat; first compound 0.01 µM): 0.767 | relative viability (Obatoclax + Vorinostat; first compound 0.03162 µM): 0.717 | relative viability (Obatoclax + Vorinostat; first compound 0.1 µM): 0.859 | relative viability (Obatoclax + Vorinostat; first compound 0.3162 µM): 0.874 | relative viability (Obatoclax + Vorinostat; first compound 1 µM): 0.958 | relative viability ([2]; first compound 0.08 µM): 0.543 | relative viability ([2]; first compound 0.253 µM): 0.699 | relative viability ([2]; first compound 0.8 µM): 0.705 | relative viability ([2]; first compound 2.53 µM): 0.546 | relative viability ([2]; first compound 8 µM): 0.536

HCC-827
relative viability ([1]; first compound 0.08 µM): 0.318 | relative viability ([1]; first compound 0.253 µM): 0.255 | relative viability ([1]; first compound 0.8 µM): 0.282 | relative viability ([1]; first compound 2.53 µM): 0.228 | relative viability ([1]; first compound 8 µM): 0.373 | relative viability (Obatoclax + Foretinib; first compound 0.01 µM): 1.01 | relative viability (Obatoclax + Foretinib; first compound 0.03162 µM): 1.04 | relative viability (Obatoclax + Foretinib; first compound 0.1 µM): 1.08 | relative viability (Obatoclax + Foretinib; first compound 0.3162 µM): 0.964 | relative viability (Obatoclax + Foretinib; first compound 1 µM): 1.05 | relative viability (Obatoclax + Vorinostat; first compound 0.01 µM): 0.879 | relative viability (Obatoclax + Vorinostat; first compound 0.03162 µM): 0.726 | relative viability (Obatoclax + Vorinostat; first compound 0.1 µM): 0.711 | relative viability (Obatoclax + Vorinostat; first compound 0.3162 µM): 0.25 | relative viability (Obatoclax + Vorinostat; first compound 1 µM): 0.82 | relative viability ([2]; first compound 0.08 µM): 0.577 | relative viability ([2]; first compound 0.253 µM): 0.673 | relative viability ([2]; first compound 0.8 µM): 0.587 | relative viability ([2]; first compound 2.53 µM): 0.441 | relative viability ([2]; first compound 8 µM): 0.236

NCI-H322M
relative viability ([1]; first compound 0.08 µM): 0.268 | relative viability ([1]; first compound 0.253 µM): 0.254 | relative viability ([1]; first compound 0.8 µM): 0.228 | relative viability ([1]; first compound 2.53 µM): 0.206 | relative viability ([1]; first compound 8 µM): 0.209 | relative viability (Obatoclax + Foretinib; first compound 0.01 µM): 0.997 | relative viability (Obatoclax + Foretinib; first compound 0.03162 µM): 1.02 | relative viability (Obatoclax + Foretinib; first compound 0.3162 µM): 0.853 | relative viability (Obatoclax + Foretinib; first compound 1 µM): 0.696 | relative viability (Obatoclax + Vorinostat; first compound 0.01 µM): 0.845 | relative viability (Obatoclax + Vorinostat; first compound 0.03162 µM): 0.799 | relative viability (Obatoclax + Vorinostat; first compound 0.1 µM): 1.2 | relative viability (Obatoclax + Vorinostat; first compound 0.3162 µM): 0.966 | relative viability (Obatoclax + Vorinostat; first compound 1 µM): 0.945 | relative viability ([2]; first compound 0.08 µM): 0.8 | relative viability ([2]; first compound 0.253 µM): 1.06 | relative viability ([2]; first compound 0.8 µM): 0.639 | relative viability ([2]; first compound 2.53 µM): 0.326 | relative viability ([2]; first compound 8 µM): 0.246

ChaGo-K-1
relative viability ([1]; first compound 0.08 µM): 0.58 | relative viability ([1]; first compound 0.253 µM): 0.598 | relative viability ([1]; first compound 0.8 µM): 0.476 | relative viability ([1]; first compound 2.53 µM): 0.151 | relative viability ([1]; first compound 8 µM): 0.132 | relative viability (Obatoclax + Foretinib; first compound 0.01 µM): 0.83 | relative viability (Obatoclax + Foretinib; first compound 0.03162 µM): 0.947 | relative viability (Obatoclax + Foretinib; first compound 0.1 µM): 0.913 | relative viability (Obatoclax + Foretinib; first compound 0.3162 µM): 0.901 | relative viability (Obatoclax + Foretinib; first compound 1 µM): 1.03 | relative viability (Obatoclax + Vorinostat; first compound 0.01 µM): 0.756 | relative viability (Obatoclax + Vorinostat; first compound 0.03162 µM): 0.587 | relative viability (Obatoclax + Vorinostat; first compound 0.1 µM): 0.637 | relative viability (Obatoclax + Vorinostat; first compound 0.3162 µM): 0.742 | relative viability (Obatoclax + Vorinostat; first compound 1 µM): 0.795 | relative viability ([2]; first compound 0.08 µM): 0.644 | relative viability ([2]; first compound 0.253 µM): 0.613 | relative viability ([2]; first compound 0.8 µM): 0.629 | relative viability ([2]; first compound 2.53 µM): 0.384 | relative viability ([2]; first compound 8 µM): 0.159

BEN
relative viability ([1]; first compound 0.08 µM): 0.339 | relative viability ([1]; first compound 0.253 µM): 0.306 | relative viability ([1]; first compound 0.8 µM): 0.32 | relative viability ([1]; first compound 2.53 µM): 0.257 | relative viability ([1]; first compound 8 µM): 0.164 | relative viability (Obatoclax + Foretinib; first compound 0.01 µM): 0.864 | relative viability (Obatoclax + Foretinib; first compound 0.03162 µM): 0.614 | relative viability (Obatoclax + Foretinib; first compound 0.3162 µM): 0.631 | relative viability (Obatoclax + Foretinib; first compound 1 µM): 0.678 | relative viability (Obatoclax + Vorinostat; first compound 0.01 µM): 0.594 | relative viability (Obatoclax + Vorinostat; first compound 0.03162 µM): 0.486 | relative viability (Obatoclax + Vorinostat; first compound 0.1 µM): 0.521 | relative viability (Obatoclax + Vorinostat; first compound 0.3162 µM): 0.556 | relative viability (Obatoclax + Vorinostat; first compound 1 µM): 0.621 | relative viability ([2]; first compound 0.08 µM): 0.634 | relative viability ([2]; first compound 0.253 µM): 0.207 | relative viability ([2]; first compound 0.8 µM): 0.22 | relative viability ([2]; first compound 2.53 µM): 0.217 | relative viability ([2]; first compound 8 µM): 0.137

NCI-H2347
relative viability ([1]; first compound 0.08 µM): 0.297 | relative viability ([1]; first compound 0.253 µM): 0.305 | relative viability ([1]; first compound 0.8 µM): 0.336 | relative viability ([1]; first compound 2.53 µM): 0.293 | relative viability ([1]; first compound 8 µM): 0.24 | relative viability (Obatoclax + Foretinib; first compound 0.01 µM): 1.09 | relative viability (Obatoclax + Foretinib; first compound 0.03162 µM): 0.831 | relative viability (Obatoclax + Foretinib; first compound 0.1 µM): 0.918 | relative viability (Obatoclax + Foretinib; first compound 1 µM): 1.04 | relative viability (Obatoclax + Vorinostat; first compound 0.01 µM): 0.633 | relative viability (Obatoclax + Vorinostat; first compound 0.03162 µM): 0.71 | relative viability (Obatoclax + Vorinostat; first compound 0.1 µM): 0.514 | relative viability (Obatoclax + Vorinostat; first compound 0.3162 µM): 0.54 | relative viability (Obatoclax + Vorinostat; first compound 1 µM): 0.465 | relative viability ([2]; first compound 0.08 µM): 0.524 | relative viability ([2]; first compound 0.253 µM): 0.371 | relative viability ([2]; first compound 0.8 µM): 0.501 | relative viability ([2]; first compound 2.53 µM): 0.389 | relative viability ([2]; first compound 8 µM): 0.22

LOU-NH91
relative viability ([1]; first compound 0.08 µM): 0.576 | relative viability ([1]; first compound 0.253 µM): 0.614 | relative viability ([1]; first compound 0.8 µM): 0.61 | relative viability ([1]; first compound 2.53 µM): 0.448 | relative viability ([1]; first compound 8 µM): 0.302 | relative viability (Obatoclax + Foretinib; first compound 0.01 µM): 0.918 | relative viability (Obatoclax + Foretinib; first compound 0.03162 µM): 0.917 | relative viability (Obatoclax + Foretinib; first compound 0.1 µM): 0.787 | relative viability (Obatoclax + Foretinib; first compound 0.3162 µM): 0.904 | relative viability (Obatoclax + Foretinib; first compound 1 µM): 0.819 | relative viability (Obatoclax + Vorinostat; first compound 0.01 µM): 0.982 | relative viability (Obatoclax + Vorinostat; first compound 0.03162 µM): 0.889 | relative viability (Obatoclax + Vorinostat; first compound 0.1 µM): 0.709 | relative viability (Obatoclax + Vorinostat; first compound 0.3162 µM): 0.885 | relative viability (Obatoclax + Vorinostat; first compound 1 µM): 0.65 | relative viability ([2]; first compound 0.08 µM): 0.391 | relative viability ([2]; first compound 0.253 µM): 0.402 | relative viability ([2]; first compound 0.8 µM): 0.322 | relative viability ([2]; first compound 2.53 µM): 0.299 | relative viability ([2]; first compound 8 µM): 0.228

NCI-H2228
relative viability ([1]; first compound 0.08 µM): 0.448 | relative viability ([1]; first compound 0.253 µM): 0.539 | relative viability ([1]; first compound 0.8 µM): 0.369 | relative viability ([1]; first compound 2.53 µM): 0.0563 | relative viability ([1]; first compound 8 µM): 0.0381 | relative viability (Obatoclax + Foretinib; first compound 0.01 µM): 0.851 | relative viability (Obatoclax + Foretinib; first compound 0.03162 µM): 0.867 | relative viability (Obatoclax + Foretinib; first compound 0.1 µM): 0.861 | relative viability (Obatoclax + Foretinib; first compound 0.3162 µM): 0.759 | relative viability (Obatoclax + Foretinib; first compound 1 µM): 0.511 | relative viability (Obatoclax + Vorinostat; first compound 0.01 µM): 0.564 | relative viability (Obatoclax + Vorinostat; first compound 0.03162 µM): 0.83 | relative viability (Obatoclax + Vorinostat; first compound 0.1 µM): 0.859 | relative viability (Obatoclax + Vorinostat; first compound 0.3162 µM): 0.654 | relative viability (Obatoclax + Vorinostat; first compound 1 µM): 0.164 | relative viability ([2]; first compound 0.08 µM): 0.178 | relative viability ([2]; first compound 0.253 µM): 0.143 | relative viability ([2]; first compound 0.8 µM): 0.139 | relative viability ([2]; first compound 2.53 µM): 0.128 | relative viability ([2]; first compound 8 µM): 0.054
